Results: US12492188B2, “1H-benzo[D]imidazole derivatives as TLR9 inhibitors for the treatment of fibrosis” (BRISTOL-MYERS SQUIBB COMPANY, priority 2020, dated 2025)
Read-outs that look alike come from different tables or passages of the source.

How the values were obtained:
Type in all cases: cell-based
[1] = biological target: T1, human TLR9 (Homo sapiens, UniProt Q9NR96); assay: TLR9 inhibition reporter assay (HEK-Blue cells, secreted embryonic alkaline phosphatase reporter)
T1 construct: host or cells: HEK-Blue cells (HEK293-derived reporter line)
T1 sequence (Q9NR96 26-1032): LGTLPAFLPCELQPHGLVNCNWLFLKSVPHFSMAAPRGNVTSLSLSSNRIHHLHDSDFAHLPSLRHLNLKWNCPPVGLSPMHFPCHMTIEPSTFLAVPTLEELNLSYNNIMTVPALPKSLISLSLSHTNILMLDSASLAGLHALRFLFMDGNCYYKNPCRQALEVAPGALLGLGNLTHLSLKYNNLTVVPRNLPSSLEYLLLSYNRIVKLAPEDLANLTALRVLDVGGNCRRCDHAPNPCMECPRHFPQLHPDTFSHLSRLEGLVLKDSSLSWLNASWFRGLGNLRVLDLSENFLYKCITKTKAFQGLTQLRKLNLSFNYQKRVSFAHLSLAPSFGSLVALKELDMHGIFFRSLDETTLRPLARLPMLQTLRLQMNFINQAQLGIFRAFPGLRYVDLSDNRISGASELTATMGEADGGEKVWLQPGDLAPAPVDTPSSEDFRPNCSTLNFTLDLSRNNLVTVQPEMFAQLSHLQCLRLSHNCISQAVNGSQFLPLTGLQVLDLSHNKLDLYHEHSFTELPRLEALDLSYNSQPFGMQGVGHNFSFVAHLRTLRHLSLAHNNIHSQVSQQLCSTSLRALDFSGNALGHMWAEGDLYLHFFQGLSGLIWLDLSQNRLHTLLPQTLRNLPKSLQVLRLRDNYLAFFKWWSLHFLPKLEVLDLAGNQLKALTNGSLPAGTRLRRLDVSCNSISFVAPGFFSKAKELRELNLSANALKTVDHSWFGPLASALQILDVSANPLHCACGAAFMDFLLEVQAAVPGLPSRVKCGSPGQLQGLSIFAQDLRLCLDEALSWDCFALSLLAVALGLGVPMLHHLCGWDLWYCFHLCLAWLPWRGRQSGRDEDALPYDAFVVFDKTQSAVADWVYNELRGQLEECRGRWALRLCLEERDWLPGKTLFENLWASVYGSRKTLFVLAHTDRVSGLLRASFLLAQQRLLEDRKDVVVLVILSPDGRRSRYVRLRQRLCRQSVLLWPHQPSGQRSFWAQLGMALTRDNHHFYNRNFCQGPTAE
Method in brief: (§1)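 Cells seeded at 15000 (TLR7), 20,000 (TLR8) or 25,000 (TLR9) per well; compound 0.05 nM–50 μM, 30 min RT pre-incubation. Agonists: gardiquimod 7.5 μM, R848 15.9 μM, ODN2006 5 nM respectively. 22 h, 37 °C; SEAP via HEK-Blue Detection; % inhibition vs agonist+DMSO and known-inhibitor wells.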

[2] = biological target: T2, human TLR7 (Homo sapiens, UniProt Q9NYK1); assay: TLR7 inhibition reporter assay (HEK-Blue cells, secreted embryonic alkaline phosphatase reporter); details: HEK-Blue cells overexpressing human TLR7, stimulated with gardiquimod 7.5 μM; read-out: TLR 7 IC50
T2 construct: host or cells: HEK-Blue cells (HEK293-derived reporter line)
T2 sequence (Q9NYK1 27-1049): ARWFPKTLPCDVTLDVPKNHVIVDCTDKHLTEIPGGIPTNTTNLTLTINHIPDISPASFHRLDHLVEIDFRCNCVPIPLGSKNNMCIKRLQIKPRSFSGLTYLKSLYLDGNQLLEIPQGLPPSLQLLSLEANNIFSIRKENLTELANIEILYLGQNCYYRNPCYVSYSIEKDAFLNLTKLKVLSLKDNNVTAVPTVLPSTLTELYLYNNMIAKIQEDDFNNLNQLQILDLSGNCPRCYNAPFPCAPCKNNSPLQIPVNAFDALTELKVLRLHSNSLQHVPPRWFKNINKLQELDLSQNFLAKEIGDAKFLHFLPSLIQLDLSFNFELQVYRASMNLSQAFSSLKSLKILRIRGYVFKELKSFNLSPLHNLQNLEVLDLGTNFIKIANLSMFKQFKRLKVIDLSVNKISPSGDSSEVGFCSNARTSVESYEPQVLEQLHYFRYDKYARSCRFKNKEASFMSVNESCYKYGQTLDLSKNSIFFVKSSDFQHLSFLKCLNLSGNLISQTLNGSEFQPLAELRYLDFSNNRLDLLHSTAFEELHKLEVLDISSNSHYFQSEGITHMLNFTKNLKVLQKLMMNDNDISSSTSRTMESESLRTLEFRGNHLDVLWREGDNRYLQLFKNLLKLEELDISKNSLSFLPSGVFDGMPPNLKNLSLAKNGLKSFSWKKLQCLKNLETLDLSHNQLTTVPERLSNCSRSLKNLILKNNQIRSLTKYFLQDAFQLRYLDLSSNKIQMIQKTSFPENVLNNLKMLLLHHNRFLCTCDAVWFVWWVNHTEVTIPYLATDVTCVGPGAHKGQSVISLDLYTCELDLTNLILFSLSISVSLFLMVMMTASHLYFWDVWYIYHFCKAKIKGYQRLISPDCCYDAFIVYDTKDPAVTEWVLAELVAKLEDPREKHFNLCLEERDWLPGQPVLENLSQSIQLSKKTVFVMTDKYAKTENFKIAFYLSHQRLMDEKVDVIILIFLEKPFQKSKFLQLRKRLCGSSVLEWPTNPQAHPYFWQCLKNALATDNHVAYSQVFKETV
Method in brief: as §1

[3] = biological target: T3, human TLR8 (Homo sapiens, UniProt Q9NR97); assay: TLR8 inhibition reporter assay (HEK-Blue cells, secreted embryonic alkaline phosphatase reporter); details: HEK-Blue cells overexpressing human TLR8, stimulated with R848 15.9 μM; read-out: TLR 8 IC50
T3 construct: host or cells: HEK-Blue cells (HEK293-derived reporter line)
T3 sequence (Q9NR97 27-1041): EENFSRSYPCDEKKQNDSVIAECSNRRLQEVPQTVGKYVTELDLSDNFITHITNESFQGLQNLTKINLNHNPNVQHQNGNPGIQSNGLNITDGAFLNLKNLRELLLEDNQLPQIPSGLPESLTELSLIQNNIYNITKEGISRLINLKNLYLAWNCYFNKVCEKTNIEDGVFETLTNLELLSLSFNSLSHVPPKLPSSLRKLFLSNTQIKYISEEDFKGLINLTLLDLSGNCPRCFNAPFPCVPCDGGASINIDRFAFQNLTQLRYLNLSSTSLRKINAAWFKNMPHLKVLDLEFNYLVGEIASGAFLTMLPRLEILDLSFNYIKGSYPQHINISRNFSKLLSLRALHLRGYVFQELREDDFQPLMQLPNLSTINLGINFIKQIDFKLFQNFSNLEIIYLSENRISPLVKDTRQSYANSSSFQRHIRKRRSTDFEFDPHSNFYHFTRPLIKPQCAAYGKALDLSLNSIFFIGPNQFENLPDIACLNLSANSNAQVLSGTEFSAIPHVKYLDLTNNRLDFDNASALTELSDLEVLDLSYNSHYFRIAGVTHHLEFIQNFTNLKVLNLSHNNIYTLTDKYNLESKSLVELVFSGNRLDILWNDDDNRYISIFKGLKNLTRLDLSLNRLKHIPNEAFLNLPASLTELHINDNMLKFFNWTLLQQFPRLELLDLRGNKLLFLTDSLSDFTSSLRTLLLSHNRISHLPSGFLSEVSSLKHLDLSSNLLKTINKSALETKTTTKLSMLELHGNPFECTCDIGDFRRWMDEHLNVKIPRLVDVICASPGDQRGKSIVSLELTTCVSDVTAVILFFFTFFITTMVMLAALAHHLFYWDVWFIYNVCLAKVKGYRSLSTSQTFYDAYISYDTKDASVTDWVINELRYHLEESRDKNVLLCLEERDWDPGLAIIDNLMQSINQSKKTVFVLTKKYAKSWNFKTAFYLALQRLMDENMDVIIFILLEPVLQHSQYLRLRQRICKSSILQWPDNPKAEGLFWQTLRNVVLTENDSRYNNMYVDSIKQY
Method in brief: as §1

[4] = HEK-Blue cells overexpressing human TLR9, stimulated with ODN2006 5 nM, 22 hour incubation, reporter readout
[5] = HEK-Blue cells overexpressing human TLR9, stimulated with ODN2006 5 nM, read-out: TLR 9 IC50

IC50 [1, 4] [nM] | IC50 [2] [nM] | IC50 [3] [nM] | IC50 [1, 5] [nM] | IC50 [1] [nM] | Structure (SMILES)
30 | 9800 | > 50000 |  |  | CC(C)N1CCC(N2CCC(c3ccc4nc(-c5ccc(S(C)(=O)=O)cc5)n(C)c4c3F)CC2)CC1 [Example 102, 7-fluoro-6-(1′-isopropyl-[1,4′-bipiperidin]-4-yl)-1-methyl-2-(4-(methylsulfonyl)phenyl)-1H-benzo[d]imidazole]
95 | 25500 | > 50000 |  |  | CC(C)N1CCC(N2CCC(c3cc(F)c4nc(-c5ccc(S(C)(=O)=O)cc5)n(C)c4c3)CC2)CC1 [Example 105, 4-fluoro-6-(1′-isopropyl-[1,4′-bipiperidin]-4-yl)-1-methyl-2-(4-(methylsulfonyl)phenyl)-1H-benzo[d]imidazole]
130 | > 50000 | > 50000 | 127 |  | Cc1cc(C2CCN(C3CCN(C(C)C)CC3)CC2)cc2c1nc(-c1ccc(S(N)(=O)=O)cc1)n2C [Example 112, 4-(6-(1′-isopropyl-[1,4′-bipiperidin]-4-yl)-1,4-dimethyl-1H-benzo[d]imidazol-2-yl)benzenesulfonamide]
120 | 19200 | > 25000 | 116 |  | Cc1cc(C2CCN(C3CC4CCC(C3)N4CC(C)C)CC2)cc2c1nc(-c1ccc(S(C)(=O)=O)cc1)n2C (centres unmarked) [Example 118, 6-(1-(8-isobutyl-8-azabicyclo[3.2.1]octan-3-yl)piperidin-4-yl)-1,4-dimethyl-2-(4-(methylsulfonyl)phenyl)-1H-benzo[d]imidazole]
19 | 14500 | > 25000 |  |  | Cc1cc(C2CCN(C3CC4CCC(C3)N4CC(C)C)CC2)cc2[nH]c(-c3ccc(S(C)(=O)=O)cc3)nc12 (centres unmarked) [Example 121, 6-(1-(8-isobutyl-8-azabicyclo[3.2.1]octan-3-yl)piperidin-4-yl)-4-methyl-2-(4-(methylsulfonyl)phenyl)-1H-benzo[d]imidazole]
140 | 8900 | > 25000 | 139 |  | Cc1cc(C2CCN(C3CCN(C(C)C)CC3)CC2)cc2c1nc(-c1ccc(S(C)(=O)=O)c(F)c1)n2C [Example 122, 2-(3-fluoro-4-(methylsulfonyl)phenyl)-6-(1′-isopropyl-[1,4′-bipiperidin]-4-yl)-1,4-dimethyl-1H-benzo[d]imidazole]
28 | 600 | 2100 |  |  | COc1cc(-c2nc3c(C)cc(C4CCN(C5CCN(C(C)C)CC5)CC4)cc3n2C)cn2ncnc12 [Example 125, 6-(6-(1′-isopropyl-[1,4′-bipiperidin]-4-yl)-1,4-dimethyl-1H-benzo[d]imidazol-2-yl)-8-methoxy-[1,2,4]triazolo[1,5-a]pyridine]
 | > 50000 | > 50000 | 480 | 480 | Cc1cc(-c2ccc(N3CCN(C4CCC4)CC3)cc2)cc2c1nc(-c1ccc(S(C)(=O)=O)cc1)n2C [Example 174, 6-(4-(4-cyclobutylpiperazin-1-yl)phenyl)-1,4-dimethyl-2-(4-(methylsulfonyl)phenyl)-1H-benzo[d]imidazole]
 | > 50000 | > 50000 | 120 | 120 | CC(C)CN1CCC(N2CCC(c3ccc4nc(-c5ccc(S(C)(=O)=O)cc5)[nH]c4c3F)CC2)CC1 [Example 177, 7-fluoro-6-(1′-isobutyl-[1,4′-bipiperidin]-4-yl)-2-(4-(methylsulfonyl)phenyl)-1H-benzo[d]imidazole]
 | > 50000 | > 50000 | 238 | 240 | CS(=O)(=O)c1ccc(-c2nc3ccc(C4CCN(C5CCN(C6CC6)CC5)CC4)c(F)c3[nH]2)cc1 [Example 178, 6-(1′-cyclopropyl-[1,4′-bipiperidin]-4-yl)-7-fluoro-2-(4-(methylsulfonyl)phenyl)-1H-benzo[d]imidazole]
 | > 50000 | > 50000 | 184 | 180 | CS(=O)(=O)c1ccc(-c2nc3ccc(C4CCN(C5CCN(CC6CC6)CC5)CC4)c(F)c3[nH]2)cc1 [Example 179, 6-(1′-(cyclopropylmethyl)-[1,4′-bipiperidin]-4-yl)-7-fluoro-2-(4-(methylsulfonyl)phenyl)-1H-benzo[d]imidazole]
 | > 50000 | > 50000 |  | 25 | CS(=O)(=O)c1ccc(-c2nc3ccc(C4CCN(C5CCN(C6CCC6)CC5)CC4)c(F)c3[nH]2)cc1 [Example 180, 6-(1′-cyclobutyl-[1,4′-bipiperidin]-4-yl)-7-fluoro-2-(4-(methylsulfonyl)phenyl)-1H-benzo[d]imidazole]
 | > 50000 | > 50000 | 641 | 640 | CS(=O)(=O)c1ccc(-c2nc3ccc(C4CCN(C5CCN(C6COC6)CC5)CC4)c(F)c3[nH]2)cc1 [Example 181, 7-fluoro-2-(4-(methylsulfonyl)phenyl)-6-(1′-(oxetan-3-yl)-[1,4′-bipiperidin]-4-yl)-1H-benzo[d]imidazole]
